Measured values: patent US11453632B2, “1-phenyl-2-phenylethane derivative” (KAO CORPORATION, priority 2018, dated 2022)

Key:
ERβ LBD = target: T1, ERβ LBD (Homo sapiens, UniProt Q92731); test: Ability to bind to ERβ: pBIND-ERβ LBD / GAL4 luciferase reporter in HEK293 cells; assay type: cell-based; parameters: key: RLU = firefly luminescence / Renilla luminescence; details: negative control 0.0118997
T1 construct: host or cells: HEK293
Procedure: This evaluation system is a system exploiting difference in the sequence of the ligand binding domain (LBD) between ERα and ERβ (J Endocrinol 163: 379-383 (1999)), and enables selective activation of ERβ to be evaluated by determining the binding of a ligand to LBD and the activation of ER.
A human kidney-derived cell line HEK293 was cultured (37° C., 5% CO2) in Dulbecco's modified Eagle medium (hereinafter, abbreviated to DMEM) containing 10% (v/v) fetal bovine serum (FBS) and penicillin/streptomycin.
2) Measurement of Binding Activity Against ERs
This measurement was carried out according to the method described in JP-B-5990058. Specifically, HEK293 cells were inoculated at a cell density of 4.0×10^4 cells/well to a 96-well plate. After 12 hours therefrom, the medium was replaced with a culture solution (DMEM containing 5% (v/v) charcoal-treated serum). The cells were cotransfected with pBIND-ERα for the expression of ERα LBD or pBIND-ERβ for the expression of ERβ LBD (Promega Corp.) and pGL4.35[luc2P/9XGAL4UAS/Hygro](Promega Corp.) using Lipofectamine 2000 (Invitrogen Corp.) according to the protocol attached to the product. 24 hours after transfection, the medium was replaced with a culture solution containing a test sample, followed by culture for another 24 hours. The activity measurement of firefly luciferase (index for the ligand binding activity of ER) and Renilla reniformis luciferase (index for the transfection efficiency of the plasmids) was carried out using Dual-Glo™ Luciferase Assay System (Promega Corp.) according to the attached protocol. The luminescence intensity of the firefly luciferase was divided by the luminescence intensity of the Renilla reniformis luciferase to calculate a relative light unit (RLU).

ERβ = target: T2, ERβ (Homo sapiens, UniProt Q92731); test: Ability to activate transcription mediated by ERβ (pcDNA3-ERβ, pERE luciferase, HEK293 cells); assay type: cell-based; details: negative control 0.001475
T2 construct: host or cells: HEK293
T2 sequence (Q92731 whole entry): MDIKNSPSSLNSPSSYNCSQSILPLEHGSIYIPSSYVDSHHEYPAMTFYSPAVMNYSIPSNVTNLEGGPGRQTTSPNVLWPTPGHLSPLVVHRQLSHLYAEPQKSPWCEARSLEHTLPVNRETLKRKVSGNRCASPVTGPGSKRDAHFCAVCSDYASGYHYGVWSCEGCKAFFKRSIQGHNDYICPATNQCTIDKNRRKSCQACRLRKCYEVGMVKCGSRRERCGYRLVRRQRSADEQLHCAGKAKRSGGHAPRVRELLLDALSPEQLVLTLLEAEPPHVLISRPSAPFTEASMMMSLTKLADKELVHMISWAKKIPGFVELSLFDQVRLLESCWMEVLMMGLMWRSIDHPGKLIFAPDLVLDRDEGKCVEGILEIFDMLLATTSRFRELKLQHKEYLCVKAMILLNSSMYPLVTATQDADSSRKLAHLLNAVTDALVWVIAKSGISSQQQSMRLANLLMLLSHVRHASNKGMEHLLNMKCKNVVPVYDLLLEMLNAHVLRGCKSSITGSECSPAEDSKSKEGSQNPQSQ
Procedure: 1) Experimental Method (Measurement of Transcriptional Activity Mediated by ERs)
HEK293 cells were inoculated at a cell density of 4.0×10^4 cells/well to a 96-well plate. After 12 hours therefrom, the medium was replaced with a culture solution (DMEM containing 5% (v/v) charcoal-treated serum). The cells were cotransfected with pcDNA3-ERα or pcDNA3-ERβ (Promega Corp.) and pERE and pRL-CMV (Promega Corp.) using Lipofectamine 2000 (Invitrogen Corp.) according to the protocol attached to the product. 24 hours after transfection, the medium was replaced with a culture medium containing a test sample, followed by culture for another 24 hours. Then, luciferase activity was measured using Dual-Glo™ Luciferase Assay System (Promega Corp.) according to the attached protocol. The luminescence intensity of firefly luciferase (index for the ability to activate transcription mediated by ERE) was divided by the luminescence intensity of Renilla reniformis luciferase (index for the transfection efficiency of the plasmids) to calculate a relative light unit (RLU).

[1] = tested on: tail skin temperature of ovariectomized rat; test: Tail skin temperature in ovariectomized (OVX) rat; assay type: in vivo
Procedure: 8-week-old female Crl:CD (SD) rats were obtained from Charles River Laboratories Japan, Inc. and individually identified by the ear punching method on the receipt date. Then, an acclimatization period was established for 1 week. The animals were raised in a rearing room under a set environment involving a temperature of 22±3° C., a humidity of 50±20%, air ventilation from 13 to 17 times/hour, and a lighting time from 8:00 to 20:00. During the acclimatization period, the rats were allowed to freely ingest solid feed CRF-1 (Oriental Yeast Co., Ltd.). Since the feeding with CRF-1, the rats were allowed to freely ingest customized feed AIN-93G (Oriental Yeast Co., Ltd.) free from components derived from soybeans.
1-2) Sham Surgery and Oophorectomy Surgery (OVX)
On the end date of acclimatization and the following day, the flank cavity was opened under isoflurane anesthesia to harvest the right and left ovaries including fallopian tubes. Other non-OVX rats were subjected to only opening and suture (sham surgery). Immediately thereafter, an antibiotic was subcutaneously administered at a dose of 100 μl/animal. After the surgery, the sham surgery or OVX animals were given customized feed and raised for approximately 1 week.
1-3) Acclimatization to Skin Temperature Measurement Environment […]
Before administration of a test substance and from 12:00 to 3:00 (dark phase) of 3, 5, 7, 14, and 21 days after the start of administration, the rats were placed in restrainers without anesthesia, and skin temperatures were measured at a site 3 cm on the tip side from the tail root using the infrared radiation thermometer. […]
Skin temperatures differed largely among individuals, and the Smirnov-Grubbs test was conducted in order to exclude outliers beforehand. Results of measuring tail skin temperatures and results of measuring uterus weights were statistically analyzed by testing using the Dunnett's test.

T1 sequence (Q92731 264-498 limits assumed): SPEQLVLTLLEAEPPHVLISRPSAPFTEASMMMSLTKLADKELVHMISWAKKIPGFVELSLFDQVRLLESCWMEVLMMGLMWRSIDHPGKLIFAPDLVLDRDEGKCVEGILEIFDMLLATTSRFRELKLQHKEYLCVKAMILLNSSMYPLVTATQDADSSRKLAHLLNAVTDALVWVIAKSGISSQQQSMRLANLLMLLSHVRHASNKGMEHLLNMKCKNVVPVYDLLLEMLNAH

`Oc1ccc(CC(C=C(F)F)c2ccc(O)cc2F)c(F)c1` (stereo not drawn) [Compound 17-F, 4,4′-(4,4-difluorobut-3-ene-1,2-diyl)bis(3-fluorophenol)] was tested, and the “relative light unit (RLU), ligand binding activity ERβ” value (ERβ LBD; 0.01 nM) was 0.4273, the “relative light unit (RLU), ligand binding activity ERβ” value (ERβ LBD; 0.1 nM) was 1.771 and the “relative light unit (RLU), ligand binding activity ERβ” value (ERβ LBD; 1 nM) was 2.021. For the same compound, the “relative light unit (RLU), ligand binding activity ERβ” value (ERβ LBD; 10 nM) was 2.367, the “relative light unit (RLU), ligand binding activity ERβ” value (ERβ LBD; 100 nM) was 2.186 and the “relative light unit (RLU), transcription activation ERβ” value (ERβ; 0.01 pM) was 0.002468. The “relative light unit (RLU), transcription activation ERβ” value (ERβ; 0.1 pM) was 0.004255, the “relative light unit (RLU), transcription activation ERβ” value (ERβ; 1 pM) was 0.01104 and the “relative light unit (RLU), transcription activation ERβ” value (ERβ; 10 pM) was 0.03023. For the same compound, the “relative light unit (RLU), transcription activation ERβ” value (ERβ; 100 pM) was 0.03238, the “relative light unit (RLU), transcription activation ERβ” value (ERβ; 1000 pM) was 0.03342 and the “relative light unit (RLU), transcription activation ERβ” value (ERβ; 10000 pM) was 0.03507. The “tail skin temperature, raw value and changed temperature from the initial value” ([1]; 4, 40, and 400 μg/kg subcutaneous, 3 days after the start of administration, vs negative solvent) was “confirmed to decrease”, the “tail skin temperature, drug efficacy” value ([1]; subcutaneous, 5 days after the start of administration) was “temporarily disappeared” and the “tail skin temperature, raw value and changed temperature” value ([1]; subcutaneous, 7 days after the start of administration) was “confirmed to decrease again”.
